# Test results published in patent US9487483B2, “Complement pathway modulators and uses thereof” (priority 2012, dated 2016).
# Molecular target: Recombinant human factor D (Homo sapiens (Human), UniProt P00746)
# Assay: biochemical
# Format: biochemical
# Details: Factor D inhibition data using Method 1; substrate Z-Lys-thiobenzyl, fluorescence readout; read-out: IC50
# Recombinant human factor D, sequence (P00746 26-253): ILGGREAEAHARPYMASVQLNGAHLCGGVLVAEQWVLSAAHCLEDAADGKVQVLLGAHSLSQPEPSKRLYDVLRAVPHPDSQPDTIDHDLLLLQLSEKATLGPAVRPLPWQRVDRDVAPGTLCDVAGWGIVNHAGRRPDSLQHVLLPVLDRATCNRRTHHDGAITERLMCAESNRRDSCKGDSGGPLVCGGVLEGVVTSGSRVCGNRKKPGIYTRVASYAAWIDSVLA
row,SMILES,IC50
1,"CC1(C)CCC[C@@H](NC(=O)[C@@H]2C[C@H]3C[C@H]3N2C(=O)Nc2cn(C(N)=O)c3ccccc23)C1 [Example 22, (1R,3S,5R)-2-Aza-bicyclo[3.1.0]hexane-2,3-dicarboxylic acid 2-[(1-carbamoyl-1H-indol-3-yl)-amide] 3-[((R)-3,3-dimethyl-cyclohexyl)-amide]]",15 nM
2,"CC[C@H]1CCC[C@@H](NC(=O)[C@@H]2C[C@H]3C[C@H]3N2C(=O)Cn2nc(C(N)=O)c3cc(C)ncc32)C1 [Example 83, 1-{2-[(1R,3S,5R)-3-((1R,3S)-3-Ethyl-cyclohexylcarbamoyl)-2-aza-bicyclo[3.1.0]hex-2-yl]-2-oxo-ethyl}-5-methyl-1H-pyrazolo[3,4-c]pyridine-3-carboxylic acid amide]",50 nM
3,"CC1(C)CCCC(NC(=O)[C@@H]2C[C@@]3(CO)C[C@H]3N2C(=O)Cn2nc(C(N)=O)c3ccccc32)C1 (stereo partly drawn) [Example 110, 1-{2-[(1R,3S,5S)-3-(3,3-Dimethyl-cyclohexylcarbamoyl)-5-hydroxymethyl-2-aza-bicyclo[3.1.0]hex-2-yl]-2-oxo-thyl}-1H-indazole-3-carboxylic acid amide]",48 nM
4,"NC(=O)c1nn(CC(=O)N2[C@@H]3C[C@@H]3C[C@H]2C(=O)N[C@@H]2CCC[C@H](C(F)(F)F)C2)c2ccccc12 [Example 49, 1-{2-Oxo-2-[(1R,3S,5R)-3-((1R,3S)-3-trifluoromethyl-cyclohexylcarbamoyl)-2-aza-bicyclo[3.1.0]hex-2-yl]ethyl}-1H-indazole-3-carboxylic acid amide]",29 nM
5,"CC(=O)c1nn(CC(=O)N2[C@H](C(=O)N[C@H]3CCCC(C)(C)C3)C[C@@]3(CO)C[C@@H]23)c2ncccc12 [Example 116, (1R,3S,5S)-2-[2-(3-Acetyl-pyrazolo[3,4-b]pyridin-1-yl)-acetyl]-5-hydroxymethyl-2-aza-bicyclo[3.1.0]hexane-3-carboxylic acid ((S)-3,3-dimethyl-cyclohexyl)-amide]",1600 nM
6,"CC(=O)c1nn(CC(=O)N2[C@@H]3C[C@@H]3C[C@H]2C(=O)N[C@@H]2CCC[C@H](C(F)(F)F)C2)c2ccc(OCc3ncccn3)cc12 [Example 95, (1R,3S,5R)-2-{2-[3-Acetyl-5-(pyrimidin-2-ylmethoxy)-indazol-1-yl]-acetyl}-2-aza-bicyclo[3.1.0]hexane-3-carboxylic acid ((1R,3S)-3-trifluoromethyl-cyclohexyl)-amide]",25 nM
7,"C[C@]1(CO)CCC[C@@H](NC(=O)[C@@H]2C[C@H]3C[C@H]3N2C(=O)Cn2nc(C(N)=O)c3ccccc32)C1 [Example 127, 1-(2-((1R,3S,5R)-3-(((1R,3S)-3-(hydroxymethyl)-3-methylcyclohexyl)carbamoyl)-2-azabicyclo[3.1.0]hexan-2-yl)-2-oxoethyl)-1H-indazole-3-carboxamide]",80 nM
8,"CC(=O)c1nn(CC(=O)N2[C@@H]3C[C@@H]3C[C@H]2C(=O)NC2CCOC(C)(C)C2)c2cnccc12 (stereo partly drawn) [Example 7, (1R,3S,5R)-2-[2-(3-Acetyl-pyrazolo[3,4-c]pyridin-1-yl)-acetyl]-2-aza-bicyclo[3.1.0]hexane-3-carboxylic acid (2,2-dimethyl-tetrahydro-pyran-4-yl)-amide]",1680 nM
9,"CC(=O)c1nn(CC(=O)N2[C@@H]3C[C@@H]3C[C@H]2C(=O)NC2CC2(F)F)c2ncccc12 (stereo partly drawn) [Example 3, (1R,3S,5R)-2-[2-(3-Acetyl-pyrazolo[3,4-b]pyridin-1-yl)-acetyl]-2-aza-bicyclo[3.1.0]hexane-3-carboxylic acid (2,2-difluoro-cyclopropyl)-amide]",4790 nM
10,"CC(=O)c1nn(CC(=O)N2[C@H](C(=O)N[C@@H]3CCCC(C)(C)C3)C[C@@]3(CO)C[C@@H]23)c2ncccc12 [Example 115, (1R,3S,5S)-2-[2-(3-Acetyl-pyrazolo[3,4-b]pyridin-1-yl)-acetyl]-5-hydroxymethyl-2-aza-bicyclo[3.1.0]hexane-3-carboxylic acid ((R)-3,3-dimethyl-cyclohexyl)-amide]",22 nM
11,"Cc1ccc2c(c1)c(C(N)=O)nn2CC(=O)N1[C@@H]2C[C@@H]2C[C@H]1C(=O)N[C@@H]1CCCC(C)(C)C1 [Example 59, 1-{2-[(1R,3S,5R)-3-((R)-3,3-Dimethyl-cyclohexylcarbamoyl)-2-aza-bicyclo[3.1.0]hex-2-yl]-2-oxo-ethyl}-5-methyl-1H-indazole-3-carboxylic acid amide]",43 nM
12,"NC(=O)c1nn(CC(=O)N2[C@@H]3C[C@@H]3C[C@H]2C(=O)NC2CCCCC2(F)F)c2cnccc12 (stereo partly drawn) [Example 35, 1-{2-[(1R,3S,5R)-3-(2,2-Difluoro-cyclohexylcarbamoyl)-2-aza-bicyclo[3.1.0]hex-2-yl]-2-oxo-ethyl}-1H-pyrazolo[3,4-c]pyridine-3-carboxylic acid amide]",774 nM
13,"Cc1cc2c(C(N)=O)nn(CC(=O)N3[C@@H]4C[C@@H]4C[C@H]3C(=O)N[C@@H]3CCC[C@H](C(F)(F)F)C3)c2cn1 [Example 50, 5-Methyl-1-{2-oxo-2-[(1R,3S,5R)-3-((1R,3S)-3-trifluoromethyl-cyclohexylcarbamoyl)-2-aza-bicyclo[3.1.0]hex-2-yl]ethyl}-1H-pyrazolo[3,4-c]pyridine-3-carboxylic acid amide]",118 nM

# Same assay, conditions: IC50, Factor D inhibition data using Method 1; substrate Z-Lys-thiobenzyl, fluorescence readout
row,SMILES,IC50
1,"NC(=O)c1nn(CC(=O)N2C[C@H](F)C[C@H]2C(=O)NC2CCCC3(CC3)C2)c2ccccc12 (single isomer, unassigned) [Example 92]",2000 nM

# Same assay, conditions: read-out: IC50
row,SMILES,IC50
1,"CO[C@H]1C[C@H](NC(=O)[C@@H]2C[C@H]3C[C@H]3N2C(=O)Cn2nc(C(N)=O)c3ccccc32)CC(C)(C)C1 [Example 106, 1-{2-[(1R,3S,5R)-3-((1R,5R)-5-Methoxy-3,3-dimethyl-cyclohexylcarbamoyl)-2-aza-bicyclo[3.1.0]hex-2-yl]-2-oxo-ethyl}-1H-indazole-3-carboxylic acid amide]",18 nM
2,"CC(=O)c1nn(CC(=O)N2[C@@H]3C[C@@H]3C[C@H]2C(=O)N[C@@H]2CCCC(C)(C)C2)c2ccc(OCc3ncccn3)cc12 [Example 98, (1R,3S,5R)-2-{2-[3-Acetyl-5-(pyrimidin-2-ylmethoxy)-indazol-1-yl]-acetyl}-2-aza-bicyclo[3.1.0]hexane-3-carboxylic acid ((R)-3,3-dimethyl-cyclohexyl)-amide]",11 nM
3,"CC(=O)c1nn(CC(=O)N2[C@@H]3C[C@@H]3C[C@H]2C(=O)NC2CC(F)(F)C2)c2ccc(OCc3ncccn3)cc12 [Example 104, (1R,3S,5R)-2-{2-[3-Acetyl-5-(pyrimidin-2-ylmethoxy)-indazol-1-yl]-acetyl}-2-aza-bicyclo[3.1.0]hexane-3-carboxylic acid (3,3-difluoro-cyclobutyl)-amide]",273 nM
4,"CC(=O)c1nn(CC(=O)N2[C@@H]3C[C@@H]3C[C@H]2C(=O)NC2(CO)CCCCC2)c2cnccc12 [Example 10, (1R,3S,5R)-2-[2-(3-Acetyl-pyrazolo[3,4-c]pyridin-1-yl)-acetyl]-2-aza-bicyclo[3.1.0]hexane-3-carboxylic acid (1-hydroxymethyl-cyclohexyl)-amide]",1820 nM
5,"CC1(C)CCC[C@@H](NC(=O)[C@@H]2[C@@H]3C[C@@H]3CN2C(=O)Cn2nc(C(N)=O)c3ccccc32)C1 [Example 88, 1-{2-[(1R,2S,5S)-2-((R)-3,3-Dimethyl-cyclohexylcarbamoyl)-3-aza-bicyclo[3.1.0]hex-3-yl]-2-oxo-ethyl}-1H-indazole-3-carboxylic acid amide]",34 nM
